Consider 18 compounds from ChEMBL document CHEMBL5665443, “Enzyme Inhibitor Single Concentration assay results for EUbOPEN Chemogenomics Library” (2024).

By inhibition is commonly meant the relative decrease from the control value, in per cent.

For experiment [1], the target named is Methyl-CpG-binding domain protein 4 (Homo sapiens) (UniProt O95243). As to conditions: Compound Concentration 10.0 uM.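 Further: MBD4 activity read as fluorescence at 594 nm from cleavage and release of a quenched duplex DNA oligonucleotide, with APE1 coupled to incise the strand and raise turnover.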
Description: Inhibition of MBD4 by quantifying inhibition of MBD4-mediated cleavage and dissociation of quenched duplex DNA oligonucleotides, measured as fluorescence at 594 nm. To generate a functional strand incision and increase turn-over this assay is coupled to APE1.
In experiment [2] the target is Uracil-DNA glycosylase (Homo sapiens) (UniProt P13051). The note with it: Compound Concentration 10.0 uM, Hit No.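 Further: UNG excision on a quenched double-stranded DNA oligo probe, with APE1 added for strand incision and turnover, read as fluorescence at 594 nm as strands separate.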
Description: Inhibition of UNG by quantifying inhibition of UNG-mediated cleavage and dissociation of quenched duplex DNA oligonucleotides, measured as fluorescence at 594 nm. To generate a functional strand incision and increase turn-over this assay is coupled to APE1.
For experiment [3], the target named is DNA-3-methyladenine glycosylase (Homo sapiens) (UniProt P29372). The note with it: Compound Concentration 10.0 uM.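 Further: enzyme assay where MPG cuts a quenched duplex DNA oligonucleotide probe, paired with APE1 for strand incision and turnover, read as fluorescence at 594 nm.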
Description: Inhibition of MPG by quantifying inhibition of MPG-mediated cleavage and dissociation of quenched duplex DNA oligonucleotides, measured as fluorescence at 594 nm. To generate a functional strand incision and increase turn-over this assay is coupled to APE1.
Experiment [4] concerns the target N-glycosylase/DNA lyase (Homo sapiens) (UniProt O15527). The note with it: Compound Concentration 10.0 uM, Hit No.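 Further: OGG1 cleavage of a quenched duplex DNA oligonucleotide, coupled to APE1 for strand incision, read as fluorescence at 594 nm.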
Description: Inhibition of OGG1 by quantifying inhibition of OGG1-mediated cleavage and dissociation of quenched duplex DNA oligonucleotides, measured as fluorescence at 594 nm. To generate a functional strand incision and increase turn-over this assay is coupled to APE1.
In experiment [5] the target is G/T mismatch-specific thymine DNA glycosylase (Homo sapiens) (UniProt Q13569). As to conditions: Compound Concentration 10.0 uM.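 Further: human TDG cleavage of quenched duplex DNA oligonucleotides coupled to APE1, strand release read as fluorescence at 594 nm, inhibition of TDG activity.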
Description: Inhibition of TDG by quantifying inhibition of TDG-mediated cleavage and dissociation of quenched duplex DNA oligonucleotides, measured as fluorescence at 594 nm. To generate a functional strand incision and increase turn-over this assay is coupled to APE1.
Experiment [6] concerns the target T1, Single-strand selective monofunctional uracil DNA glycosylase (Homo sapiens) (UniProt Q53HV7).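 Further: enzymatic SMUG1 assay coupled with APE1, reading fluorescence at 594 nm released when a quenched double-stranded DNA oligonucleotide substrate is cleaved and separated.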
T1 sequence (whole entry): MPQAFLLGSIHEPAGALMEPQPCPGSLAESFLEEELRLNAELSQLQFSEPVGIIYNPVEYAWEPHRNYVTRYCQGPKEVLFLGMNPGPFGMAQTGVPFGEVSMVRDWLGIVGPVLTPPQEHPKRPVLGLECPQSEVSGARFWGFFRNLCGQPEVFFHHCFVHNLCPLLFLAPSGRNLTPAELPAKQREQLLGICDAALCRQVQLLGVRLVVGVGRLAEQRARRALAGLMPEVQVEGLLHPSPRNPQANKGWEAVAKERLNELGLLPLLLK
As to conditions: Compound Concentration 10.0 uM, Hit No.
Description: Inhibition of SMUG1 by quantifying inhibition of SMUG1-mediated cleavage and dissociation of quenched duplex DNA oligonucleotides, measured as fluorescence at 594 nm. To generate a functional strand incision and increase turn-over this assay is coupled to APE1.

In experiment [7] the target is T2, Adenine DNA glycosylase (Homo sapiens) (UniProt Q9UIF7).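 Further: human MUTYH activity read as 594 nm fluorescence from cleavage and release of a quenched DNA duplex, coupled with APE1 for strand incision, lower signal meaning inhibition.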
T2 sequence (whole entry): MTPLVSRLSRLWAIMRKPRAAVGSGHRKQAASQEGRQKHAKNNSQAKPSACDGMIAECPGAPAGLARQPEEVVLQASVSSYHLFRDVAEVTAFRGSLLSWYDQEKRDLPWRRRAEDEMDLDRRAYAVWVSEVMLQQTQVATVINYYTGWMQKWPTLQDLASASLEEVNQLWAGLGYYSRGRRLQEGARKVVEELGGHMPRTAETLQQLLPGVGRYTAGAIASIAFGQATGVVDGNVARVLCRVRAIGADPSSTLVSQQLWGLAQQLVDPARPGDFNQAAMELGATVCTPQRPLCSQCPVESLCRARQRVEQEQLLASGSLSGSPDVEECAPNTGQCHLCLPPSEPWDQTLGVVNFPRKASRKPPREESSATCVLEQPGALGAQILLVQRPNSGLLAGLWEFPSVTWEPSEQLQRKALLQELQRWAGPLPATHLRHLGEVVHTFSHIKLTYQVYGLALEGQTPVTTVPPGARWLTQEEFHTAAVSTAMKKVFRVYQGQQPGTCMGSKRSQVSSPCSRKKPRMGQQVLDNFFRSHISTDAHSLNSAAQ
As to conditions: Compound Concentration 10.0 uM, Hit No.
Description: Inhibition of MUTYH by quantifying inhibition of MUTYH-mediated cleavage and dissociation of quenched duplex DNA oligonucleotides, measured as fluorescence at 594 nm. To generate a functional strand incision and increase turn-over this assay is coupled to APE1.

Experiment [8] addresses T3, Endonuclease 8-like 2 (Homo sapiens) (UniProt Q969S2).
T3 sequence (whole entry): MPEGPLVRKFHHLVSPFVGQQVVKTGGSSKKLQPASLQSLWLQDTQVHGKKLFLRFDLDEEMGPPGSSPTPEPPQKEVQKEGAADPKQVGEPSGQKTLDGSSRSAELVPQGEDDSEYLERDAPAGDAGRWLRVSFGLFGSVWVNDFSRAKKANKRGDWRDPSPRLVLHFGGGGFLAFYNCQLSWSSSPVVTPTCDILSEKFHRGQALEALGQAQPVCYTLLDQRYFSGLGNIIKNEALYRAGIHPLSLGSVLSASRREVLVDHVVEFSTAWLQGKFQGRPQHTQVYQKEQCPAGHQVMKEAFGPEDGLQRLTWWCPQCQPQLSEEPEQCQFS
The note with it: Compound Concentration 10.0 uM, Hit No.
Description: Inhibition of NEIL2 by quantifying inhibition of NEIL2-mediated cleavage and dissociation of quenched duplex DNA oligonucleotides, measured as fluorescence at 594 nm.

Experiment [9] has as its target Endonuclease 8-like 1 (Homo sapiens) (UniProt Q96FI4). The note with it: Compound Concentration 10.0 uM, Hit No.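 Further: fluorescence at 594 nm from quenched duplex DNA oligonucleotides released by NEIL1 cleavage and strand separation, reported as reduction of this enzyme activity.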
Description: Inhibition of NEIL1 by quantifying inhibition of NEIL1-mediated cleavage and dissociation of quenched duplex DNA oligonucleotides, measured as fluorescence at 594 nm.

The structures appear in SMILES notation.

Uracil-DNA glycosylase (Homo sapiens), sequence (P13051 whole entry): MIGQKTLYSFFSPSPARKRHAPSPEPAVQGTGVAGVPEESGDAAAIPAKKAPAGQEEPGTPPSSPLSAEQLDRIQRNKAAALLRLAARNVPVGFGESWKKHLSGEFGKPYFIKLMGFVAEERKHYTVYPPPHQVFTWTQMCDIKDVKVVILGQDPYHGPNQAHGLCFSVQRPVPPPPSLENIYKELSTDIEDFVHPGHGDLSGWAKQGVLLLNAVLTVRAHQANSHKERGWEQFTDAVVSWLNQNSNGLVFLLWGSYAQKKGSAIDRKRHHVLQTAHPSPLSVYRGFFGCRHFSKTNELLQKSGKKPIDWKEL
G/T mismatch-specific thymine DNA glycosylase (Homo sapiens), sequence (Q13569 whole entry): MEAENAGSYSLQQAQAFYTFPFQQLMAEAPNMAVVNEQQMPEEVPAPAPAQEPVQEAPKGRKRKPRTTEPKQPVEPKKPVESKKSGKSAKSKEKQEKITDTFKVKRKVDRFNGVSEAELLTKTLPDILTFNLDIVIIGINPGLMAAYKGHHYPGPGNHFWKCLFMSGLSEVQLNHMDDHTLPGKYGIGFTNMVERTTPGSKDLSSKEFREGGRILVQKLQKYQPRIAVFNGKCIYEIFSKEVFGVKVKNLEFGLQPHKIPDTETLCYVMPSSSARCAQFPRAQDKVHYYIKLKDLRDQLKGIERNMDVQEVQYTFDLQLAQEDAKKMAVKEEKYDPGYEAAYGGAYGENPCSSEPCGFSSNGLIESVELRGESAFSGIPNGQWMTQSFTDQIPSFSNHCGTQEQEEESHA
DNA-3-methyladenine glycosylase (Homo sapiens), sequence (P29372 whole entry): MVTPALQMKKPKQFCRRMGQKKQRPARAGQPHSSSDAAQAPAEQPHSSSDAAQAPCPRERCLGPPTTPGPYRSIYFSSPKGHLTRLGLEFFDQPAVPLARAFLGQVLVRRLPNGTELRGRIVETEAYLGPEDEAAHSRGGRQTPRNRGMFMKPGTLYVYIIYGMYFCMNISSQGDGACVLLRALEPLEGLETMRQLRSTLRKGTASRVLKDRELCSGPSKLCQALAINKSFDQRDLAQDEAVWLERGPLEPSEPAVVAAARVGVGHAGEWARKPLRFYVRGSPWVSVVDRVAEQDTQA
Endonuclease 8-like 1 (Homo sapiens), sequence (Q96FI4 whole entry): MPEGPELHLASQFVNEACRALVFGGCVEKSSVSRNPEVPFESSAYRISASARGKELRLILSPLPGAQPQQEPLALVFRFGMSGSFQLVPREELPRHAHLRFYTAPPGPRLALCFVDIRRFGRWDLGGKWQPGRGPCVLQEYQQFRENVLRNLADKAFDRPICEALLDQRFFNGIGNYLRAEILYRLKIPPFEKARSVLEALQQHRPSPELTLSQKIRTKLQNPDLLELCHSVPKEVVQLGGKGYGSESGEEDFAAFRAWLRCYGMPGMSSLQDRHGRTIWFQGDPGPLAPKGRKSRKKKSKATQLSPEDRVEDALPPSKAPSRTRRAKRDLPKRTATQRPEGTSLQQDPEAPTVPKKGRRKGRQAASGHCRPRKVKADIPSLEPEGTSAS
Methyl-CpG-binding domain protein 4 (Homo sapiens), sequence (O95243 whole entry, the tested form may be a part): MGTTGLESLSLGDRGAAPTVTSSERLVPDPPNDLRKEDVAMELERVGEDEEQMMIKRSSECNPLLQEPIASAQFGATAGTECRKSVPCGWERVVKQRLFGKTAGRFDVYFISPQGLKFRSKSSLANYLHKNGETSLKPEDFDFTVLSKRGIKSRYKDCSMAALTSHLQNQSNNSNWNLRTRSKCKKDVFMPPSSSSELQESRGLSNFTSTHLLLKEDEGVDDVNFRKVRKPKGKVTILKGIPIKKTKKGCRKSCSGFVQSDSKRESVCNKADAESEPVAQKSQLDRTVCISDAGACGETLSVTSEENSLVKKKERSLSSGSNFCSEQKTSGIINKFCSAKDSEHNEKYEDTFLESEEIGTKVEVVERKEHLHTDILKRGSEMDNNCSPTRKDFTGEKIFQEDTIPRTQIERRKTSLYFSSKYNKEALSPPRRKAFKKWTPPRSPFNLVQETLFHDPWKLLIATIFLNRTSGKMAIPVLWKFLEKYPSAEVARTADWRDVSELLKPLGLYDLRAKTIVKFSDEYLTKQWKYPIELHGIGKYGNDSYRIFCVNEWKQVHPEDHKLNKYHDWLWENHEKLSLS
N-glycosylase/DNA lyase (Homo sapiens), sequence (O15527 whole entry): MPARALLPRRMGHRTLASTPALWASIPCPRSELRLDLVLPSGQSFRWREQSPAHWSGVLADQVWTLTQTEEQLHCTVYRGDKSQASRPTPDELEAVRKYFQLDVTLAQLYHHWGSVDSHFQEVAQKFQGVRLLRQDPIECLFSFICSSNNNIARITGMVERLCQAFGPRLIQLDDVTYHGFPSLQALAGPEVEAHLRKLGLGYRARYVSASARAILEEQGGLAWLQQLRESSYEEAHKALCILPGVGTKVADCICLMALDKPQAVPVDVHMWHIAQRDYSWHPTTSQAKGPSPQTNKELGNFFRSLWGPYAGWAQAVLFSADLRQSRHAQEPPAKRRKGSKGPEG

Consider `CCCCc1oc2ccccc2c1C(=O)c1cc(I)c(OCCN(CC)CC)c(I)c1`, for which the inhibition in [1] (Hit No) amounted to 28.2%; in experiment [2] it was 1.42%; in experiment [3] (Hit No) it was 5.3%; in experiment [4], 0.672%; in experiment [5] (Hit No), 30.6%; in [6] it was 15.3%. Also, the values for the inhibition in experiment [7] and in [8] were -0.487% and -6.36%, respectively.

Regarding `COc1ccc2[nH]cc(CCNC(C)=O)c2c1`, the inhibition in [1] (Hit No) is -1.65%; in experiment [2], -7.83%; in experiment [3] (Hit No), -3.95%; in experiment [9] it was 1.13%; in [4] it was -4.66%; in [5] (Hit No) it was 5.88%. Also, the values for the inhibition in [6], in [7] and in [8] were -7.74%, 19.4% and 1.51%, respectively.

Regarding `CC(C)(C#Cc1ccc(NC(=O)COc2ccccc2C(=O)c2ccccc2)c(Cl)c1)C(=O)O`, the inhibition is 83.7% in [1] (Hit No); 7.11% in experiment [2]; 115% in [3] (Hit No); -9.68% in experiment [9]; 49.5% in [4]; 61.6% in experiment [5] (Hit No). Besides, the inhibition in experiment [6] was 12.2%; in experiment [7], 16.2%; in experiment [8], 15.6%.

As for `Cc1nnc2n1-c1sc(CCC(=O)N3CCOCC3)cc1C(c1ccccc1Cl)=NC2`, the inhibition was -1.19% in experiment [1] (Hit No); -6.5% in experiment [2]; -4.33% in experiment [3] (Hit No); 5.28% in experiment [9]; 0.211% in experiment [4]; 14.6% in experiment [5] (Hit No). Besides, the inhibition in experiment [6] was -7.88%; in [7], 16.7%; in experiment [8], 7.25%.

In the case of `CCCCCNC(=N)N/N=C/c1c[nH]c2ccc(OC)cc12`, the inhibition in [1] (Hit Yes) is 114%; in experiment [2], -3.68%; in experiment [3] (Hit Yes), 108%; in [9] it was -9.54%; in experiment [4], 2.43%; in experiment [5] (Hit Yes), 103%. Moreover, the inhibition is -3.67% in experiment [6], 114% in [7] and 20.7% in experiment [8].

With `COc1ccccc1/C=N/NC(=O)COc1ccc(Cl)cc1C`, the inhibition is 18.4% in experiment [1] (Hit No); -5.19% in experiment [2]; 9.76% in experiment [3] (Hit No); 8.6% in [9]; 2.66% in [4]; 18.2% in [5] (Hit No). Also, the inhibition in experiment [6] was 14%; in experiment [7] it was 10.8%; in experiment [8], -3.15%.

Consider `CC(C)NCC(O)COc1ccc(CCOCC2CC2)cc1` (stereo not given), for which the inhibition in experiment [1] (Hit No) is 4.74%; in [2], -7.33%; in experiment [3] (Hit No), -1.52%; in [9], -5.99%; in experiment [4], -0.494%; in [5] (Hit No), 21.4%. The inhibition in experiment [6] was 5.49%; in experiment [7] it was -5.48%; in experiment [8] it was -0.983%.

`CC(Cc1ccc(O)c(O)c1)C(C)Cc1ccc(O)c(O)c1` (stereo not given): the inhibition in experiment [1] (Hit No) was 58.5%; in experiment [2], 1.91%; in [3] (Hit No), 19.4%; in experiment [9] it was 12.4%; in [4], 28.8%; in experiment [5] (Hit No) it was 40%. Further, the inhibition was -6.33% in experiment [6], 35.6% in experiment [7] and 0.265% in experiment [8].

As for `Cc1cc(-c2ccc3c(c2)CC[C@H]3N2CC3(CCN(C(=O)Cc4cn5cc(C)sc5n4)CC3)C2)ncn1`, the inhibition was 2.75% in experiment [1] (Hit No); -6.41% in experiment [2]; -2.4% in experiment [3] (Hit No); -1.18% in experiment [9]; -7.69% in experiment [4]; 6.67% in experiment [5] (Hit No). Moreover, the inhibition in experiment [6] is -0.24%; in [7] it was 0.491%.

Turning to `COc1ccc(S(=O)(=O)N2c3ccc(Cl)cc3[C@](O)(c3ccccc3Cl)[C@@H]2C(=O)N2CCC[C@H]2C(N)=O)cc1OC`, the inhibition in [1] (Hit No) is -7.23%; in experiment [2], -8.37%; in [3] (Hit No), 8.66%; in [9], -2.72%; in experiment [4], -5.95%; in experiment [5] (Hit No), 10.6%. The inhibition is -8.03% in experiment [6], 28.9% in [7] and -0.733% in [8].

Turning to `CC(C1CC2CCC1C2)n1c(S)nnc1-c1ccco1` (stereo not given), the inhibition in experiment [1] (Hit No) was 23.6%; in experiment [2], -6.26%; in experiment [3] (Hit No) it was 19.5%; in experiment [9], 1.64%; in experiment [4] it was -7.6%; in experiment [5] (Hit No), 22.6%. The inhibition turned out to be 13.7% in [6], 19.9% in experiment [7] and 9.84% in experiment [8].

On to `CC[C@@H]1C(=O)N(C)c2cnc(Nc3ccc(C(=O)NC4CCN(C)CC4)cc3OC)nc2N1C1CCCC1`, for which the inhibition in experiment [1] (Hit No) was 33%; in experiment [2], 13.3%; in [3] (Hit No), 7.81%; in experiment [9], 2.78%; in experiment [4], -5.59%; in experiment [5] (Hit No), 69.8%. Further, the inhibition in experiment [6] is 23.4%; in experiment [7], 38.1%.

On to `Cc1noc(-c2ccc(-c3ccc(CC(=O)O)cc3)cc2)c1NC(=O)O[C@H](C)c1ccccc1Cl`, for which the inhibition in experiment [1] (Hit No) was 45.9%; in experiment [2], -9.06%; in experiment [3] (Hit No), 10.4%; in [9] it was -3.47%; in [4], 10.8%; in experiment [5] (Hit No), 43.6%. Moreover, the inhibition is -3.86% in experiment [6], 53.1% in [7] and -4.48% in [8].

As for `CN(C)c1ccnc2sc3c(=O)n(N4CCCCCC4)cnc3c12`, the inhibition in experiment [1] (Hit No) is -2.87%; in experiment [3] (Hit No), 2.57%; in experiment [9], 7.65%; in experiment [4], 18.5%; in [5] (Hit No) it was 5.33%; in experiment [6], -6.77%. Besides, the figures for the inhibition in [7] and in experiment [8] were 6.93% and 16%, respectively.

On to `CCOC(=O)c1cc(C#N)c(N2CCC(C(=O)NS(=O)(=O)Cc3ccccc3)CC2)nc1C`, for which the inhibition in [1] (Hit No) is 12%; in experiment [2] it was -6.55%; in experiment [3] (Hit No), 0.797%; in experiment [9] it was -0.649%; in experiment [4] it was 4.63%; in [5] (Hit No) it was 22.6%. Besides, the inhibition in [6] was 7.04%; in [7] it was 13.3%; in experiment [8] it was -3.73%.

Take `CC(C)NC(=O)c1ccc(C#Cc2ccncc2)cn1`: the inhibition in experiment [1] (Hit No) is -1.07%; in [3] (Hit No), -5.61%; in experiment [9] it was 7.51%; in experiment [4] it was 2.41%; in experiment [5] (Hit No), 8.93%; in [6] it was 2.68%. For the same compound, the inhibition came out at 12.7% in experiment [7] and 5.76% in experiment [8].

Take `CC(C)N(CCCCOCC(=O)NS(C)(=O)=O)c1cnc(-c2ccccc2)c(-c2ccccc2)n1`: the inhibition in experiment [1] (Hit No) was 80.6%; in experiment [3] (Hit No), 55.8%; in experiment [9], 9.29%; in [4], 17.1%; in experiment [5] (Hit No) it was 51%; in [6], -1.68%. Moreover, the inhibition in [7] amounted to 47.5%; in experiment [8], 6.75%.

For the compound `CCc1cc2c(c(CC)n1)CCC(=O)N2Cc1ccc(-c2ccccc2-c2nnn[nH]2)cc1`, the inhibition in experiment [1] (Hit No) is 2.76%; in [3] (Hit No), 6.08%; in experiment [9] it was 13.9%; in experiment [4], 6.16%; in experiment [5] (Hit No) it was 13.7%; in [6], -8.27%. For the same compound, the inhibition in experiment [7] is 24.1%; in [8], 2.26%.
